Experiments:
PC-3 cells = experiment: Dual Sensor: MitoCasp Assay in PC-3 prostate cancer cells; assay type: cell-based, human
Excerpt: Techniques to assay enzymatic and signaling processes involved in apoptosis have been developed as standard protocols. One example of an early step in apoptosis, is the release of cytochrome C from mitochondria and the activation of caspase-3. Induction of the caspases (a series of cytosolic proteases) is one of the most consistently observed features of apoptosis. Caspases are a family of proteolytic enzymes that transmit the apoptotic signal using a proteolytic cascade. […] Caspases 3 and 7 are effector caspases, central to the caspase cascade pathways. In particular, caspase-3 plays a central role in the process. When caspases are activated, they cleave target proteins; one of the most important of these is poly-(ADP-ribose) polymerase (PARP), which is a protein located in the nucleus. Therefore, assays detecting release of cytochrome C, detecting caspase-3 activity and detecting PARP degradation are effective determinants of apoptosis. The loss of mitochondrial membrane potential is known to occur during apoptosis. To analyze mitochondrial membrane potential, a cationic dye may be used which accumulates in the mitochondria of healthy cells. Collapse of the mitochondrial membrane potential during apoptosis prevents the dye from accumulating in the mitochondria resulting in a decrease in fluorescent intensity that can be detected with flow cytometry. Dual Sensor: MitoCasp™ (Cell Technology) used herein in the Examples is an assay that measures caspase 3/7 activity and cells with decreased mitochondrial membrane potential. In this assay, caspase 3/7 activity is detected using a cell permeable carboxyfluorescein labeled caspase inhibitor, which binds covalently to active caspases 3 and 7. Cells that contain bound inhibitor are detected by an increase in fluorescence when samples are analyzed by flow cytometry.
PC-3 cells (ATCC #CRL-1435) were derived from a prostate adenocarcinoma (Kaighn et al., 1979). They were maintained in RPMI 1640 medium (Gibco) supplemented with 10% fetal bovine serum (Cansera), 100 U/mL penicillin, and 100 μg/mL streptomycin and 0.25 μg/mL amphotericin B. Cultures were maintained in medium at 37° C. with 5% CO2 and 100% relative humidity.
To harvest adherent cells, the existing medium was removed and cells were dissociated with 0.25% (w/v) trypsin-EDTA·4Na in Hank's Balanced Salt Solution (Gibco). To block the proteolytic action of the trypsin, the cells were resuspended in an excess of media containing fetal bovine serum. Cells were transferred to a 15 mL conical centrifuge tube and pelleted by centrifugation at 500×g for 5 min. Cell pellets were resuspended in media, and an aliquot of the cells were seeded into a new flask.
PC-3 cells were seeded in tissue culture flasks with regular growth medium and maintained under normal conditions. […] Following incubation under normal growth conditions for the specified time, cells were washed once with cold phosphate-buffered saline (PBS) (137 mM NaCl, 2.7 mM KCl, 4.3 mM Na2HPO4.7H2O, 1.4 mM KH2PO4) and harvested as previously described. Assays were carried out according to instructions given in kits. All Flow Cytometry was performed using a Coulter Epics XL (Beckman).
Following centrifugation at 500×g for 5 min, cell pellets were resuspended in PBS at 3.3×10^6 cells/mL. 300 μL cell suspension was mixed with 10 μL each of 30X Mitochondria Membrane Potential Dye and 30X Caspase 3/7 detection reagent. Following incubation for 60 min under normal growth conditions, cells were washed twice with 1× wash buffer and resuspended in 0.5 mL 1× wash buffer. Samples were analyzed by flow cytometry measuring the fluorescence emissions from 515 nm to 530 nm for caspase detection, and 574 nm to 600 nm for mitochondrial membrane potential detection.

MDA-MB-231 cells = experiment: Vybrant Apoptosis Assay Kit #2 in MDA-MB-231 cells; assay type: cell-based, human
Excerpt: Another apoptotic assay is the Annexin-V detection of extracellular phosphatidlyserine (PS). Normally, phosphatidylserine is localized on the inner membrane of the plasmalemma. However, during the early stages of apoptosis, externalization of PS takes place. Annexin-V is a calcium binding protein which binds to PS and can be observed with annexin-V-FITC staining by flow cytometry (Martin, et al., 1995). Alexa Fluor® 488-labeled Annexin V, which has a high affinity for PS, is used to detect apoptotic cells by binding to PS on the outer surface of the cell. Propidium iodide staining is used concurrently to detect dead cells. When cells are analyzed by flow cytometry apoptotic cells show Annexin V staining, late apoptotic cells show PI and Annexin V staining, and dead cells show only PI staining. The Vybrant® Apoptosis Assay Kit #2 (Molecular Probes™) used herein in the Examples is an assay that measures Annexin-V positive cells.
The MDA-MB-231 cell line (ATCC #HTB-26) was derived from the pleural effusion of a patient with a breast adenocarcinoma (Cailleau et al., 1974). The cells were maintained in RPMI 1640 (Gibco) supplemented with 10% fetal bovine serum (Camera), 100 U/mL penicillin, 100 μg/mL streptomycin and 0.25 μg/mL amphotericin B. Cultures were maintained in medium at 37° C. with 5% CO2 and 100% relative humidity.
MDA-MB-231 cells were treated with PC1448 and assayed for apoptosis as previously described for PC-3 cells.

[1] = Haemolytic properties of selected saponins; conditions: saponins purified to more than 75%
Excerpt: The haemolytic properties of the various saponins that have been purified to more than 75% have been examined and are provided in Table 39. Haemolytic properties are not directly related to anti-cancer or apoptosis inducing properties of saponins but may be related to toxicity and utility of the saponins for preparation of injectable formulations. Saponins most suitable for injectable formulation will be less haemolytic. QS21, a purified Quillaja saponaria saponin with known haemolytic activity is used as reference.

**Q.** What does the source list for Segetoside H [PC1448]?
**A.** Cells with caspase 3/7 activity (PC-3 cells; 2.5 μM PC1448, 37 hr): 5.6%; Cells with decreased mitochondrial membrane potential (PC-3 cells; 2.5 μM PC1448, 37 hr): 6.0%; Cells with caspase 3/7 activity (PC-3 cells; 5.0 μM PC1448, 37 hr): 35.1%; Cells with decreased mitochondrial membrane potential (PC-3 cells; 5.0 μM PC1448, 37 hr): 9.9%; Cells with caspase 3/7 activity (PC-3 cells; 7 μM PC1448, 26 hr): 77.8%; Cells with decreased mitochondrial membrane potential (PC-3 cells; 7 μM PC1448, 26 hr): 24.8%; Cells with caspase 3/7 activity (PC-3 cells; 10 μM PC1448, 26 hr): 86.2%; Cells with decreased mitochondrial membrane potential (PC-3 cells; 10 μM PC1448, 26 hr): 30.8%; Cells with caspase 3/7 activity (PC-3 cells; 10.0 μM PC1448, 37 hr): 76.8%; Cells with decreased mitochondrial membrane potential (PC-3 cells; 10.0 μM PC1448, 37 hr): 26.7%; Cells with caspase 3/7 activity (PC-3 cells; 14 μM PC1448, 05 hr): 13.0%; Cells with decreased mitochondrial membrane potential (PC-3 cells; 14 μM PC1448, 05 hr): 38.0%; Cells with caspase 3/7 activity (PC-3 cells; 14 μM PC1448, 10 hr): 29.2%; Cells with decreased mitochondrial membrane potential (PC-3 cells; 14 μM PC1448, 10 hr): 72.5%; Cells with caspase 3/7 activity (PC-3 cells; 14 μM PC1448, 15 hr): 42.9%; Cells with decreased mitochondrial membrane potential (PC-3 cells; 14 μM PC1448, 15 hr): 89.4%; Cells with caspase 3/7 activity (PC-3 cells; 14 μM PC1448, 20 hr): 57.2%; Cells with decreased mitochondrial membrane potential (PC-3 cells; 14 μM PC1448, 20 hr): 94.1%; Increase in cells with a decreased mitochondrial membrane potential vs untreated (PC-3 cells; 14 μM PC1448, 20 hr (4.5% to 94.1%)): ~20 fold; Cells with caspase 3/7 activity (PC-3 cells; 14 μM PC1448, 26 hr): 84.0%; Cells with decreased mitochondrial membrane potential (PC-3 cells; 14 μM PC1448, 26 hr): 52.0%; Increase in cells with measurable caspase 3/7 activity vs untreated (PC-3 cells; 14 μM PC1448, over the 20 hr exposure period): approximately a doubling; Cells with caspase 3/7 activity (PC-3 cells; 15.0 μM PC1448, 37 hr): 72.9%; Cells with decreased mitochondrial membrane potential (PC-3 cells; 15.0 μM PC1448, 37 hr): 32.3%; Cells with caspase 3/7 activity (PC-3 cells; 17 μM PC1448, 26 hr): 77.7%; Cells with decreased mitochondrial membrane potential (PC-3 cells; 17 μM PC1448, 26 hr): 41.9%; Concentration of greatest effect on apoptosis (PC-3 cells; 37 hours): above 10 μM; Induction of apoptosis at concentrations as low as (PC-3 cells; 37 hours): 5.0 µM; Concentration with the greatest change in cells with decreased mitochondrial membrane potential (PC-3 cells; PC1448 7-17 μM, 26 hr): 14 µM; Concentration with the largest increase in caspase 3/7 activity (PC-3 cells; PC1448 7-17 μM, 26 hr): 10 µM; Increase in caspase 3/7 activity vs untreated (PC-3 cells; PC1448 7-17 μM, 26 hr, all treated cells): 9 fold; Increase in Annexin V positive cells vs untreated (MDA-MB-231 cells; 14 μM PC1448, 12 hours): 2.7 fold; Annexin-V positive cells (MDA-MB-231 cells; 14 μM PC1448, 12 hr): 46.3%; Annexin-V positive cells (MDA-MB-231 cells; 14 μM PC1448, 24 hr): 37.9%; Annexin-V positive cells (MDA-MB-231 cells; 14 μM PC1448, 48 hr): 37.9%; HD50 [1]: 13.8 µM

**Q.** Which results are given for Segetoside I [PC1464]?
**A.** Cells with caspase 3/7 activity (PC-3 cells; 1.25 μM PC1464, 36 hr): 9.6%; Cells with decreased mitochondrial membrane potential (PC-3 cells; 1.25 μM PC1464, 36 hr): 1.8%; Cells with caspase 3/7 activity (PC-3 cells; 1.75 μM PC1464, 26 hr): 8.5%; Cells with decreased mitochondrial membrane potential (PC-3 cells; 1.75 μM PC1464, 26 hr): 3.2%; Cells with caspase 3/7 activity (PC-3 cells; 2.5 μM PC1464, 36 hr): 15.1%; Cells with decreased mitochondrial membrane potential (PC-3 cells; 2.5 μM PC1464, 36 hr): 3.4%; Cells with caspase 3/7 activity (PC-3 cells; 3.50 μM PC1464, 26 hr): 40.4%; Cells with decreased mitochondrial membrane potential (PC-3 cells; 3.50 μM PC1464, 26 hr): 14.8%; Cells with caspase 3/7 activity (PC-3 cells; 5.0 μM PC1464, 36 hr): 57.1%; Cells with decreased mitochondrial membrane potential (PC-3 cells; 5.0 μM PC1464, 36 hr): 28.7%; Cells with caspase 3/7 activity (PC-3 cells; 5.25 μM PC1464, 26 hr): 49.5%; Cells with decreased mitochondrial membrane potential (PC-3 cells; 5.25 μM PC1464, 26 hr): 20.3%; Cells with caspase 3/7 activity (PC-3 cells; 7 μM PC1464, 10 hr): 12.2%; Cells with decreased mitochondrial membrane potential (PC-3 cells; 7 μM PC1464, 10 hr): 5.1%; Cells with caspase 3/7 activity (PC-3 cells; 7 μM PC1464, 20 hr): 40.1%; Cells with decreased mitochondrial membrane potential (PC-3 cells; 7 μM PC1464, 20 hr): 21.4%; Cells with caspase 3/7 activity (PC-3 cells; 7.00 μM PC1464, 26 hr): 59.4%; Cells with decreased mitochondrial membrane potential (PC-3 cells; 7.00 μM PC1464, 26 hr): 24.1%; Increase in cells with decreased mitochondrial membrane potential (PC-3 cells; 7 μM PC1464, 30 hours): more than ten fold; Increase in number of cells with caspase 3/7 activity (PC-3 cells; 7 μM PC1464, 30 hours): six fold; Cells with caspase 3/7 activity (PC-3 cells; 7 μM PC1464, 30 hr): 54.6%; Cells with decreased mitochondrial membrane potential (PC-3 cells; 7 μM PC1464, 30 hr): 51.2%; Cells with caspase 3/7 activity (PC-3 cells; 10.0 μM PC1464, 36 hr): 59.6%; Cells with decreased mitochondrial membrane potential (PC-3 cells; 10.0 μM PC1464, 36 hr): 43.2%; Concentration of greatest effect on apoptosis (PC-3 cells; 36 hours): above 5 μM; Induction of apoptosis at concentrations as low as (PC-3 cells; 36 hours): 2.5 µM; Concentrations with significant effect on induction of apoptosis (PC-3 cells; PC1464 1.75-7 μM, 26 hour): ≥ 3.5 µM; Annexin-V positive cells (MDA-MB-231 cells; 7 μM PC1464, 12 hr): 28.8%; Annexin-V positive cells (MDA-MB-231 cells; 7 μM PC1464, 24 hr): 39.7%; Increase in Annexin V positive cells vs untreated (MDA-MB-231 cells; 7 μM PC1464, 36 hour): 3 fold; Annexin-V positive cells (MDA-MB-231 cells; 7 μM PC1464, 36 hr): 49.3%; HD50 [1]: 17.5 µM
